Measurements: publication PMC9950073, “Alleviation of arthritis through prevention of neutrophil extracellular traps by an orally available inhibitor of protein arginine deiminase 4” (Scientific Reports, 2023)
“And” between values parts separate entries of the source, which are not always exact repeats. Identical values can stand only once.

Key:
[1] = target: T1, recombinant human PAD4 enzyme (Homo sapiens, UniProt Q9UM07); experiment: PAD4 biochemical assay measuring ammonia release; settings: 10 semi-log concentrations, figure box prints no unit, x axis μM, read-out: IC50, inhibition of PAD4 enzymatic activity
T1 construct: Full-length recombinant human PAD4 used in the assay was produced at Jubilant Biosys Ltd, Bangalore; made in house
T1 sequence (Q9UM07 whole entry): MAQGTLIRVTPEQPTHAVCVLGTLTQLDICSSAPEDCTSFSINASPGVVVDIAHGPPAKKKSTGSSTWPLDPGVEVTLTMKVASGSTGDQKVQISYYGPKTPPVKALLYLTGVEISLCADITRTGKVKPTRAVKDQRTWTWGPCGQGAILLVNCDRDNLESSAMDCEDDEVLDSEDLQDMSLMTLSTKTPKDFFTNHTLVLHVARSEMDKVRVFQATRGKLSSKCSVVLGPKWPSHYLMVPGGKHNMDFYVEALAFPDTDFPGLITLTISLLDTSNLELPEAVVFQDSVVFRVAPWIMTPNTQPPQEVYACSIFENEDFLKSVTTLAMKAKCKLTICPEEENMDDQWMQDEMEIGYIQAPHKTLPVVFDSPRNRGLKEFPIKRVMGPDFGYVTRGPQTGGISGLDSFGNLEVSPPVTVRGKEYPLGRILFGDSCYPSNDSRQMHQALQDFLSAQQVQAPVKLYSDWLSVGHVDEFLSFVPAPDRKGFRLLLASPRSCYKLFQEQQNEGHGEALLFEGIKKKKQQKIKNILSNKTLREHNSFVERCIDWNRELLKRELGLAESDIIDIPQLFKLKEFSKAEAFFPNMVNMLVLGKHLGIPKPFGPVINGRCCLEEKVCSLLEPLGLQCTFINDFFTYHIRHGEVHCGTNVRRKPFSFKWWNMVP
Method: This assay relies on the ammonia produced when peptidylarginine deiminase 4 (PAD4) deiminates Nα-Benzoyl-L-arginine ethyl ester (BAEE) (Sigma, Catalog No: B4500), a non-natural substrate. The ammonia reacts with a detector i.e., ortho-phthaladehyde (OPA) (Sigma, Catalog No: P0657) resulting in a fluorescent product that is then analyzed at an excitation wavelength of 410 nm and an emission wavelength of 470 nm[33]. Full-length recombinant human PAD4 used in the assay was produced at Jubilant Biosys Ltd, Bangalore. PAD4 enzyme (125 nM) was diluted in Assay Buffer (100 mM HEPES, 50 mM NaCl, 2 mM DTT, 0.6 mg/ml BSA, pH7) and incubated with different concentrations of JBI-589 for 60 min at room temperature and then the reaction was initiated by the addition of substrate (1.5 mM BAEE (sigma) in 100 mM HEPES, 50 mM NaCl, 500 μM CaCl2, 2 mM DTT, pH7) then incubated with 1.5 mM BAEE substrate (Sigma) for another 60 min. The reaction was then stopped by the addition of detection buffer containing 50 mM EDTA, 2.6 mM ortho-phthalaldehyde and 2 mM DTT and fluorescence was measured. IC50 values were determined by sigmoidal dose–response curve (variable slope) using GraphPad Prism 5 software. […]

mouse neutrophils = experiment: NET formation assay on neutrophils isolated from orally dosed mice; assay type: in vivo; settings: 50 mg/kg orally for seven consecutive days
Method: To determine the effects of JBI-589 on NET formation, an in vitro NET assay was performed. In mouse neutrophils, ionomycin stimulation induced more than 90% of H4Cit-positivity and NET formation in approximately 15% of neutrophils. […] To evaluate the in vivo effects, JBI-589 at 50 mg/kg or vehicle (water) was orally administered twice daily for seven consecutive days. Four hours after the last administration, mouse neutrophils were isolated, and then a NET formation assay was performed.
Mouse peripheral blood was collected by retro-orbital puncture in ethylenediaminetetraacetic acid (EDTA) anticoagulated buffer supplemented with 1% endotoxin-free BSA in sterile PBS. Neutrophils were isolated by Percoll gradient centrifugation as described previously. The purity of neutrophils was more than 90% as confirmed by the Wright-Giemsa stain.
Mouse or human neutrophils were resuspended in HEPES-supplemented phenol red-free RPMI1640 medium and 1.5 × 10^4 cells were seeded per well in a 96-well plate. After incubating for 20 min at 37 °C and 5% CO2, the cells were stimulated with vehicle control or ionomycin (Sigma, Catalog No: I24222) (4 µM) for 4 h. Neutrophils were fixed with 4% paraformaldehyde (PFA), washed and permeabilized (0.1% Triton X-100, 0.1% sodium citrate) for 10 min at 4 °C. Subsequently, neutrophils were incubated with blocking buffer (2.5% BSA, 0.5% Tween-20 in 1 × PBS) at room temperature for an hour followed by overnight incubation with the primary antibody against citrullinated histone H4 (H4Cit, 1:250, catalog number: 07-596, Millipore, Burlington, MA). After washing 3 times with PBS, neutrophils were incubated with Hoechst 33342 (1:10,000, catalog number: H3570, Invitrogen). Images were obtained with a Zeiss Axiovert 200 M wide-field fluorescence microscope (Zeiss, Oberkochen, Germany) with the Zeiss AxioVision software. The percentages of H4Cit positive neutrophils and neutrophil extracellular traps (NETs) were calculated by quantifying more than 200 randomly selected cells. […]

human neutrophils = experiment: Cell Titer Glo viability assay, neutrophils; assay type: cell-based; settings: 24 h, up to 10 µM
Excerpt: All blood samples from healthy donors who participated in this study were obtained after informed consent in accordance with relevant guidelines and regulations given by the ACE Independent ethics committee for Jubilant Biosys Ltd and Office of Clinical Investigations at Boston Children’s Hospital. The ACE Independent ethics committee, Bangalore, approved the use of human whole blood/PBMC/Enriched Subset in Jubilant Biosys Ltd investigations, Drug Controller General of India (DCGI) Reg No. ECR/141/Indt/KA/2013. Briefly, 10 mL K2EDTA vacutainers were used to collect fresh blood from healthy donors (BD vacutainer, Catalog No: BD 367525). A total of 50 ml of blood was taken from a single, healthy human donor. Neutrophils were isolated from human blood using the EasySep Direct Human Neutrophil Isolation Kit, according to the manufacturer's instructions (Stem Cell Technology, Catalog No: 19666). For investigations conducted at Boston Children’s Hospital, experimental procedure was approved by the Office of Clinical Investigations at Boston Children’s Hospital (protocol number IRB-P00003283). […]
The CellTiter-Glo luminescent cell viability assay was performed on neutrophils/peripheral blood mononuclear cells according to the manufacturer’s instructions (Promega, catalog number: G7570)[35]. […] Luminescence was recorded with Perkin Elmer envision 2103 multilabel reader.

[2] = neutrophils isolated 4 h after last administration, ionomycin 4 µM

Cc1c(-c2cc3ccccc3n2Cc2ccc(F)cc2)nc2cc(C(=O)N3CCC[C@@H](N)C3)ccn12 [JBI-589, (R)-(3-aminopiperidin-1-yl)(2-(1-(4-fluorobenzyl)-1H-indol-2-yl)-3-methylimidazo[1,2-a]pyridin-7-yl)methanone]
IC50 [1]: 0.122 µM and 0.123 µM | H4Cit positivity compared with vehicle (mouse neutrophils; [2]): reduced both H4Cit positivity and NET formation significantly | NET formation compared with vehicle (mouse neutrophils; [2]): reduced both H4Cit positivity and NET formation significantly | percentage of H4Cit positive cells (mouse neutrophils; vehicle 88%, p = 0.01): 83% | viability of neutrophils (human neutrophils): minimal or no changes
